In patent US20200024278A1, “COMPOSITION COMPRISING ANTIBIOTIC COMPOUND AND AN HETEROCYCLIC COMPOUND AND THEIR USE IN PREVENTING OR TREATING BACTERIAL INFECTIONS” (MUTABILIS, priority 2016, published 2020):

Legend:
Assay in all cases: MIC, broth microdilution (CLSI), substance alone or ATB combined with compound at 4 or 8 μg/mL
[1] = tested on: ECL P99; format: cell-based, E. cloacae; settings: ECL P99; for MIC ATB combined with Example: Example @4 μg/ml
Method in brief: (§1)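 Per CLSI-M7-A7, MICs are determined in cation-adjusted Mueller-Hinton broth with a final inoculum of 5·10^5 CFU/mL. Plates incubate 16-20 h at 35° C in air and are read by eye. Fosfomycin assays carry 25 μg/ml glucose-6-phosphate.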

[2] = tested on: KPN UFR42; format: cell-based, K. pneumoniae; settings: KPN UFR42; for MIC ATB combined with Example: Example @4 μg/ml; for MIC ATB combined with Example compound: compound @4 μg/ml
Method in brief: as §1

[3] = tested on: KPN BAA-1898; format: cell-based, K. pneumoniae; settings: KPN BAA-1898; for MIC ATB combined with Example: Example @4 μg/ml
Method in brief: as §1

[4] = tested on: KPN 6299; format: cell-based, K. pneumoniae; settings: for MIC ATB combined with Example: Example @4 μg/ml
Method in brief: as §1

[5] = tested on: PAE 105250; format: cell-based, P. aeruginosa; settings: PAE 105250; for MIC ATB combined with Example: Example @4 μg/ml; for MIC ATB combined with Example compound: compound @4 μg/ml
Method in brief: as §1

[6] = tested on: PAE UFR90; format: cell-based, P. aeruginosa; settings: PAE UFR90; for MIC ATB combined with Example: Example @4 μg/ml; for MIC ATB combined with Example compound: compound @4 μg/ml
Method in brief: as §1

[7] = tested on: PAE UFR48; format: cell-based, P. aeruginosa; settings: PAE UFR48; for MIC ATB combined with Example: Example @4 μg/ml; for MIC ATB combined with Example compound: compound @4 μg/ml
Method in brief: as §1

[8] = tested on: SPN 49619; format: cell-based, S. pneumoniae; settings: SPN 49619; for MIC ATB combined with Example: Example @4 μg/ml; for MIC ATB combined with Example compound: compound @4 μg/ml
Method in brief: as §1

[9] = tested on: ECO 190317; format: cell-based, E. coli; settings: ECO 190317; for MIC ATB combined with Example: Example @4 μg/ml
Method in brief: as §1

[10] = tested on: ECO UFR39; format: cell-based, E. coli; settings: ECO UFR39; for MIC ATB combined with Example: Example @4 μg/ml; for MIC ATB combined with Example compound: compound @4 μg/ml
Method in brief: as §1

[11] = tested on: SAU 29213; format: cell-based, S. aureus; settings: for MIC ATB combined with Example / MIC ATB combined with Example compound: SAU 29213; for MIC ATB combined with Example: Example @4 μg/ml; for MIC ATB combined with Example compound: compound @4 μg/ml
Method in brief: as §1

Structure (SMILES): O=C1N2CC(n3ccnn3)=C[C@H](C2)N1OS(=O)(=O)[O-].[Na+] [Example 16, sodium [(5R)-7-oxo-3-(triazol-1-yl)-1,6-diazabicyclo[3.2.1]oct-3-en-6-yl] sulfate]
- MIC ATB combined with Example ([1]; ATB ATM): <0.031 µg/mL
- MIC ATB combined with Example ([1]; ATB FEP): <0.031 µg/mL
- MIC ATB combined with Example ([1]; ATB FOS): <0.125 µg/mL
- MIC ATB combined with Example ([1]; ATB MEM): <0.031 µg/mL
- MIC ATB combined with Example ([1]; ATB PIP): <0.031 µg/mL
- MIC ATB combined with Example compound ([1]; MIC of CIP, compound @4 μg/ml): <=0.031 μg/mL
- MIC ([1]; substance alone): 1 µg/mL
- MIC ATB combined with Example ([2]; ATB ATM): <0.031 µg/mL
- MIC ATB combined with Example ([2]; ATB FEP): <0.031 µg/mL
- MIC ATB combined with Example ([2]; ATB FOS): <0.125 µg/mL
- MIC ATB combined with Example ([2]; ATB MEM): <0.031 µg/mL
- MIC ATB combined with Example ([2]; ATB PIP): <0.031 µg/mL
- MIC ATB combined with Example compound ([2]; MIC of CIP): <0.031 µg/mL
- MIC ATB combined with Example compound ([2]; MIC of CPO): <0.031 µg/mL
- MIC ([2]; substance alone): 2 µg/mL
- MIC ATB combined with Example ([3]; ATB ATM): <0.031 µg/mL
- MIC ATB combined with Example ([3]; ATB FEP): <0.031 µg/mL
- MIC ATB combined with Example ([3]; ATB FOS): <0.125 µg/mL
- MIC ATB combined with Example ([3]; ATB MEM): <0.031 µg/mL
- MIC ATB combined with Example ([3]; ATB PIP): <0.031 µg/mL
- MIC ATB combined with Example compound ([3]; MIC of CIP, compound @4 μg/ml): <0.031 µg/mL
- MIC ([3]; substance alone): 1 µg/mL
- MIC ATB combined with Example ([4]; ATB ATM): <0.031 µg/mL
- MIC ATB combined with Example ([4]; ATB FEP): <0.031 µg/mL
- MIC ATB combined with Example ([4]; ATB FOS): <0.125 µg/mL
- MIC ATB combined with Example ([4]; ATB MEM): <0.031 µg/mL
- MIC ATB combined with Example ([4]; ATB PIP): <0.031 µg/mL
- MIC ATB combined with Example compound ([4]; MIC of CIP, compound @4 μg/ml): <0.031 µg/mL
- MIC ATB combined with Example ([5]; ATB ATM): 8 µg/mL
- MIC ATB combined with Example ([5]; ATB FEP): 4 µg/mL
- MIC ATB combined with Example ([5]; ATB FOS): >128 µg/mL
- MIC ATB combined with Example ([5]; ATB MEM): 2 µg/mL
- MIC ATB combined with Example ([5]; ATB PIP): >32 µg/mL
- MIC ATB combined with Example compound ([5]; MIC of CIP): 0.125 µg/mL
- MIC ATB combined with Example compound ([5]; MIC of CPO): 8 µg/mL
- MIC ([5]; substance alone): 32 µg/mL
- MIC ATB combined with Example ([6]; ATB ATM): 16 µg/mL
- MIC ATB combined with Example ([6]; ATB FEP): 4 µg/mL
- MIC ATB combined with Example ([6]; ATB FOS): 8 µg/mL
- MIC ATB combined with Example ([6]; ATB MEM): 1 µg/mL
- MIC ATB combined with Example ([6]; ATB PIP): >32 µg/mL
- MIC ATB combined with Example compound ([6]; MIC of CIP): 1 µg/mL
- MIC ATB combined with Example compound ([6]; MIC of CPO): 8 µg/mL
- MIC ([6]; substance alone): >32 µg/mL
- MIC ATB combined with Example ([7]; ATB ATM): 8 µg/mL
- MIC ATB combined with Example ([7]; ATB FEP): 16 µg/mL
- MIC ATB combined with Example ([7]; ATB FOS): 32 µg/mL
- MIC ATB combined with Example ([7]; ATB MEM): 0.25 µg/mL
- MIC ATB combined with Example ([7]; ATB PIP): 16 µg/mL
- MIC ATB combined with Example compound ([7]; MIC of CIP): 4 µg/mL
- MIC ATB combined with Example compound ([7]; MIC of CPO): >32 µg/mL
- MIC ([7]; substance alone): 32 µg/mL
- MIC ATB combined with Example ([8]; ATB ATM): >32 µg/mL
- MIC ATB combined with Example ([8]; ATB FEP): <=0.031 μg/mL
- MIC ATB combined with Example ([8]; ATB FOS): 8 µg/mL
- MIC ATB combined with Example ([8]; ATB MEM): <=0.031 μg/mL
- MIC ATB combined with Example ([8]; ATB PIP): 0.5 µg/mL
- MIC ATB combined with Example compound ([8]; MIC of CIP): <=0.031 μg/mL
- MIC ATB combined with Example compound ([8]; MIC of CLI): <0.0010 µg/mL
- MIC ATB combined with Example compound ([8]; MIC of CPO): <=0.031 μg/mL
- MIC ATB combined with Example compound ([8]; MIC of DAP): 0.031 µg/mL
- MIC ATB combined with Example compound ([8]; MIC of ERY): <0.0020 µg/mL
- MIC ATB combined with Example compound ([8]; MIC of LZD): 0.125 µg/mL
- MIC ATB combined with Example compound ([8]; MIC of RIF): 0.00049 µg/mL
- MIC ATB combined with Example compound ([8]; MIC of SYN): 0.5 µg/mL
- MIC ATB combined with Example compound ([8]; MIC of VAN): 0.0078 µg/mL
- MIC ([8]; substance alone): 4 µg/mL
- MIC ATB combined with Example ([9]; ATB ATM): <0.031 µg/mL
- MIC ATB combined with Example ([9]; ATB FEP): <0.031 µg/mL
- MIC ATB combined with Example ([9]; ATB FOS): <0.125 µg/mL
- MIC ATB combined with Example ([9]; ATB MEM): <0.031 µg/mL
- MIC ATB combined with Example ([9]; ATB PIP): <0.031 µg/mL
- MIC ATB combined with Example compound ([9]; MIC of CIP, compound @4 μg/ml): <0.031 µg/mL
- MIC ([9]; substance alone): 0.5 µg/mL
- MIC ATB combined with Example ([10]; ATB ATM): <0.031 µg/mL
- MIC ATB combined with Example ([10]; ATB FEP): <0.031 µg/mL
- MIC ATB combined with Example ([10]; ATB FOS): <0.125 µg/mL
- MIC ATB combined with Example ([10]; ATB MEM): <0.031 µg/mL
- MIC ATB combined with Example ([10]; ATB PIP): <0.031 µg/mL
- MIC ATB combined with Example compound ([10]; MIC of CIP): <0.031 µg/mL
- MIC ATB combined with Example compound ([10]; MIC of CPO): <0.031 µg/mL
- MIC ([10]; substance alone): 0.5 µg/mL
- MIC ATB combined with Example ([11]; ATB ATM): <0.031 µg/mL
- MIC ATB combined with Example ([11]; ATB FEP): <0.031 µg/mL
- MIC ATB combined with Example ([11]; ATB FOS): <=0.125 μg/mL
- MIC ATB combined with Example ([11]; ATB MEM): <=0.031 μg/mL
- MIC ATB combined with Example ([11]; ATB PIP): <0.031 µg/mL
- MIC ATB combined with Example compound ([11]; MIC of CIP): <0.031 µg/mL
- MIC ATB combined with Example compound ([11]; MIC of CLI): <0.0010 µg/mL
- MIC ATB combined with Example compound ([11]; MIC of CPO): <0.031 µg/mL
- MIC ATB combined with Example compound ([11]; MIC of DAP): <0.0020 µg/mL
- MIC ATB combined with Example compound ([11]; MIC of ERY): <0.0020 µg/mL
- MIC ATB combined with Example compound ([11]; MIC of LZD): <0.0078 µg/mL
- MIC ATB combined with Example compound ([11]; MIC of RIF): <0.00012 µg/mL
- MIC ATB combined with Example compound ([11]; MIC of SYN): <0.0020 µg/mL
- MIC ATB combined with Example compound ([11]; MIC of VAN): <0.0039 µg/mL
- MIC ([11]; substance alone, SAU 29213 (MSSA 29213)): 4 µg/mL
